Experimental data taken from patent US6380227B1, “Fermentative preparation process for and crystal forms of cytostatics” (Novartis AG, priority 1998, dated 2002).

Assay: Stability of crystal forms of epothilone B
Conditions: storage, no test described

For `C/C(=C\c1csc(C)n1)[C@@H]1C[C@@H]2O[C@]2(C)CCC[C@H](C)[C@H](O)[C@@H](C)C(=O)C(C)(C)[C@@H](O)CC(=O)O1` [crystal form A, epothilone B], the “stability of the solid crystal form” value was “especially stable”.
